In PMC6522914, “Benzonate derivatives of acetophenone as potent α-glucosidase inhibitors: synthesis, structure–activity relationship and mechanism” (Journal of Enzyme Inhibition and Medicinal Chemistry, 2019):
“Also recorded” adds a separate entry of the source. Like-named read-outs stand apart in the source and are kept apart here.

Columns and labels:
[1] = molecular target: T1, α-glucosidase (Saccharomyces cerevisiae, UniProt P53341); test: Fluorescence quenching and van't Hoff thermodynamics; type: binding; conditions: for ΔG^o: van't Hoff
Method: The steady state fluorescence emission spectra, were recorded between 300 and 500 nm at the excitation wavelength of 280 nm at three different temperatures (25, 31 and 37 °C), and both the excitation and emission slits were set at 2.5 nm. Compound 7u at different concentrations (from 0 to 6 µM) were added into the 3.0 ml solution containing a fixed amount of α-glucosidase (2μM). All of the mixtures were held for 5 min to equilibrate before measurements. The fluorescence spectra of buffer were subtracted as the background fluorescence.
(§1) The synchronous fluorescence spectra of α-glucosidase in the absence and presence of compound 7u were scanned by setting the excitation and emission wavelength intervals (Δλ) at 15 and 60 nm, respectively. To eradicate the probability of re-absorption and inner filter effects in UV absorption, all of the fluorescence data were corrected for absorption of exciting light and emitted light, based on the Equation S1[3]^,[13].

[2] = molecular target: T1, α-glucosidase; test: Circular dichroism measurement; type: binding; conditions: 7u 0–4 µM, α-glucosidase 2 µM, 25 °C
Method: The CD measurements of α-glucosidase in the presence of compound 7u were conducted in far–UV region (190–250 nm), under nitrogen environment using a 1.0 mm path length cuvette. The concentration of α-glucosidase was maintained constant (2 µM) while the 7u concentration was varied as 0, 1, 2, and 4 µM. All observed CD spectra were recorded in 0.1 M PBS (pH 6.8) at 25 °C[13]^,[31].

[3] = Sucrose-loading test (postprandial blood glucose); type: in vivo, Kunming mice; conditions: mice, 20 mg/kg by gavage, sucrose 2.5 g/kg, 0–120 min
Method: The carbohydrate loading test was conducted according as Kato et al.[23] and Han et al.[24] reported, with slight modifications. Fifteen male Kunming mice (35–40 g) after an overnight fast were randomly divided into three groups (five mice per group). […] A blank control group was loaded with 0.5% CMC–Na solution only. The blood samples were collected from the mice’s tail vein at 0, 15, 30, 60, 90, and 120 min, and the blood glucose levels were determined by a glucose detection kit.

[4] = molecular target: T1, α-glucosidase; test: Synchronous fluorescence spectra; type: binding; conditions: 7u 0–6 µM, 25 °C
Text: as §1

[5] = molecular target: T1, α-glucosidase; test: Isothermal titration calorimetry; type: binding; conditions: ITC, 25 °C
Method: Titration of the compound 7u into the α-glucosidase was performed at 25 °C. All the solutions were prepared in 0.1 M PBS (pH 6.8). The α-glucosidase solution (2.5μM) was placed in the 1.3 ml sample cell of the calorimeter, and the injection syringe was loaded with the solution of 7u (30μM, in 0.05% DMSO). The solution of compound 7u was titrated into the sample cell at 25 °C as a progression of 25 injections of 10μL. The time delay between each two injections was 300 s. To ensure comprehensive mixing, all the sample was stirred at a speed of 300 rpm during experiment. The control experiments included the titration of the compound 7u solution into 0.1 M PBS (pH 6.8)[33–35].

[6] = molecular target: T1, α-glucosidase; test: Kinetic analysis of inhibition type (Lineweaver–Burk / Michaelis–Menten); type: biochemical
Method: To further explore the inhibitory characteristic of this type of compounds, kinetic studies of the selected compound 7u were performed[3]^,[13]^,[26]. Different final concentrations (0.5, 1, 2, 4, and 8 µM) of the inhibitor 7u around the IC50 values were chosen. The concentration of α-glucosidase was kept at 1 µM, and the pNPG concentrations varied from 2.0 to 12.0 mM in the absence and presence of compound 7u. The type of inhibition was analyzed on the basis of the Michaelis–Menten constant (Km) and maximal rate (Vmax) of the enzyme. The parameters were determined via Lineweaver–Burk plots, which was obtained by plotting enzyme reaction velocity (ν) and substrate (pNPG), namely, 1/ν versus 1/[pNPG]. The secondary plot slope against [7u] was also determined. The protein concentration was determined according to the Bradford method[27] using bovine serum albumin as the standard.

[7] = test system: intestinal α-glucosidase; test: Everted intestinal sleeve assay; set-up: species or system Sprague–Dawley rats
Method: ^1H NMR and ^13 C NMR spectra were carried out using a 500 MHz Avance spectrometer (Bruker, USA) or a Varian Mercury 400 MHz spectrometer. Chemical shifts were measured relative to the residual solvent peaks of CDCl3 with tetramethylsilane as the internal standard. High-resolution mass spectra were recorded on an AB SCIEX Triple TOF 5600+ spectrometer. The in vitro inhibitory activity and kinetic assay of α-glucosidase were measured by a microplate reader (Synergy HTX, BioTek Instruments Inc., Winooski, VT, USA). Fluorescence spectra were conducted on a spectrofluorometer (LS55, Perkin Elmer Inc., Waltham, MA, USA). […] Titration microcalorimetry measurement conducted on a Nano-ITC SV instrument (TA Instruments Ltd., UK). The surgeries were performed under anesthesia and all efforts were made to minimise animal suffering. The blood glucose levels were determined via a glucose detection kit (Robio Co., Ltd., Shanghai, China). […] The concentrations of glucose in the soaking solution and intestinal sleeve were detected using S-10 biosensor analyzer (Sieman Technology Co., Ltd., Shenzhen, China). All reaction progress was monitored by thin-layer chromatography (TLC) on silica gel GF254 (Qingdao Haiyang Chemical Co., Ltd., Qingdao, China) with ultraviolet detection. Reagents were purchased from commercial sources (Bodi Chemical Co., Ltd., Tianjin, China; Aladdin Industrial Co., Ltd., Shanghai, China), and used as received. α-Glucosidase (EC 3.2.1.20, Sigma-Aldrich Chemical, St. Louis, MO, USA); 4-nitrophenyl-α-D-glucopyranoside (pNPG) (99%, Macklin Biochemical Co., Ltd, Shanghai, China).
After a 12-h fasting, the jejunum of 200–220 g Sprague-Dawley […] was obtained. Then the proximal jejunum was flushed with pre-cold isotonic saline (4 °C) and cut into 3 cm-long segments. Each segment was weighed separately, everted and both ends were secured by tying knots. Then the sleeves were incubated (90 min at 37 °C) in mammalian Ringer’s solution containing sucrose (1.5 mM) and an appropriate concentration of the inhibitor (0.17 mM). Following the incubation, the concentrations of glucose in the soaking solution and intestinal sleeves were tested with biosensor analyzer (S-10). The total glucose concentration was calculated as glucose per gram of gut weight (mmol/g).

[8] = molecular target: α-glucosidase (EC 3.2.1.20) (Saccharomyces cerevisiae, UniProt P53341); test: α-Glucosidase inhibitory assay (pNPG substrate); type: biochemical; conditions: in vitro
Method: The α-glucosidase inhibitory assay was performed according to a slightly modified method previously reported[21]^,[22]. In brief, a series of reaction solutions, including a fixed amount of α-glucosidase (10 unit/mL 3.75 µL), different concentrations of inhibitors (the tested compounds or positive controls, 37.5 µL), and sodium phosphate buffer (PBS, […], 0.1 M, pH 6.8), were incubated at 37 °C for 10 min. To initiate the reaction, 112.5 µL of pNPG (6.0 mM, as a substrate) was added into the pre-incubated mixtures, and the final volume of reaction system was kept at 750 µL. The p-nitrophenol released from pNPG substrate was used as the target substance to quantify the enzymatic activity. […] The negative control was prepared by adding PBS instead of α-glucosidase, the blank was prepared by adding solvent instead of tested compounds, and the inhibition rate was calculated as the following Equation (1). (1) (ODcontrol−ODcontrol blank)−(ODtest−ODtest blank)/ODcontrol−ODcontrol blank×100%

[9] = molecular target: T1, α-glucosidase; conditions: cited from earlier work

T1 sequence (P53341 whole entry): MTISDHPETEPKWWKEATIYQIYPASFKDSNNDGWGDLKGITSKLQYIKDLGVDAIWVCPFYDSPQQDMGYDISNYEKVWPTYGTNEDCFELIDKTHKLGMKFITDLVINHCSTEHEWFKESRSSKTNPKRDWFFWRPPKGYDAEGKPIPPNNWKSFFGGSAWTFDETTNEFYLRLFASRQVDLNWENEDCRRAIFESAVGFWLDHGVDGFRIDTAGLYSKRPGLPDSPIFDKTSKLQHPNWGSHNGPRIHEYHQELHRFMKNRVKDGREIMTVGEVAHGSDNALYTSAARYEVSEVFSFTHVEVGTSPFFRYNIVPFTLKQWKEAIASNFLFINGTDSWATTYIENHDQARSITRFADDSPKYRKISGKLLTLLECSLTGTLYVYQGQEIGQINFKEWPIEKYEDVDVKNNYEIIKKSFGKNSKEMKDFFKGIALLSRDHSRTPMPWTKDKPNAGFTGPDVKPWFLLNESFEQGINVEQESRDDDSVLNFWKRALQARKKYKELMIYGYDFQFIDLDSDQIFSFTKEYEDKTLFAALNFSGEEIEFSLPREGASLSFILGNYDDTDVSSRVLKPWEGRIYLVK
α-glucosidase (EC 3.2.1.20), sequence (P53341 whole entry): as above

For `CC(=O)c1cc(Br)c(OC(=O)c2ccccc2[N+](=O)[O-])c(Br)c1O` [7u], the “KSV (quenching constant)” value ([1]; 25 °C) was 5.00 ± 0.04 × 10^4 L·mol^−1, the “n (number of binding sites)” value ([1]; 25 °C) was 1.23 and the “ΔG^o” value ([1]; 25 °C) was -7.698 ± 0.014 kcal/mol. For the same compound, the “KSV (quenching constant)” value ([1]; 31 °C) was 4.74 ± 0.03 × 10^4 L·mol^−1, the “n (number of binding sites)” value ([1]; 31 °C) was 1.19 and the “ΔG^o” value ([1]; 31 °C) was -7.488 ± 0.0072 kcal/mol. The “KSV (quenching constant)” value ([1]; 37 °C) was 4.31 ± 0.02 × 10^4 L·mol^−1, the “n (number of binding sites)” value ([1]; 37 °C) was 1.15 and the “ΔG^o” value ([1]; 37 °C) was -7.28 ± 0.0048 kcal/mol. For the same compound, the quenching mechanism ([1]; KSV versus temperature) was “static quenching mechanism”, the Kq ([1]; fluorescence quenching) was ~10^12 L·mol^−1·s^−1 and the “CD negative bands at 209 and 220 nm” value [2] was “both intensity of the negative bands decreased”. The “effect on postprandial blood glucose levels” value ([3]; 20 mg/kg) was “significantly attenuated postprandial blood glucose in mice; also recorded: obvious repressive effect on blood glucose concentrations at peaked 15 min”, the “shift of maximum emission wavelength of Tyr residues” value ([4]; Δλ = 15 nm) was “No evident shift” and the “shift of maximum emission wavelength of Trp residues” value ([4]; Δλ = 60 nm) was “noticeable red shift (from 277.5 to 286.5 nm)”. For the same compound, the ΔG [5] was “–39.04 kJ·mol^−1”, the ΔH [5] was -23.901 kcal/mol and the ΔS [5] was “–204.50 J·mol^−1·K^−1”. It also gave a ΔG ([5]; listed as 7 u) of -9.331 kcal/mol, a ΔS ([5]; listed as 7 u) of −204.50 J·mol^−1·K^−1 and a Vmax ([6]; 7u 1 µM) of 1.39 ± 0.02 µM/min. The Vmax ([6]; 7u 2 µM) was 1.24 ± 0.01 µM/min, the Vmax ([6]; 7u 4 µM) was 1.04 ± 0.01 µM/min and the Vmax ([6]; 7u 8 µM) was 0.84 ± 0.02 µM/min. The type of inhibition ([6]; Lineweaver–Burk plot) was “mixed-type inhibition”, the “inhibitory activity on intestinal α-glucosidase compared with acarbose” value ([7]; 0.17 mM) was “better than that of acarbose” and the “glucose concentration in the solution outside the intestinal sleeves” value ([7]; 0.17 mM inhibitor, sucrose 1.5 mM) was “decreased the glucose concentrations in the solution present outside the intestinal sleeves”. The “total concentration of glucose” value ([7]; 0.17 mM inhibitor, sucrose 1.5 mM, 5–90 min, versus blank) was “much lower than that of the blank” and the “glucose concentration in the intestinal sleeves” value ([7]; 0.17 mM inhibitor, sucrose 1.5 mM, versus blank) was “lower than that of blank”.
With `CC(=O)c1cc(Br)c(OC(=O)CCCCBr)c(Br)c1O` [7h] the “α-glucosidase inhibitory activity (in words)” value [8] was “lost the activity”.
In the case of `O=c1cc(-c2ccc(O)cc2)oc2cc(O)cc(O)c12` [compound 2, apigenin], the “inhibition activity against α-glucosidase compared with acarbose” value ([9]; ref Zeng et al. 13) is given as “superior inhibition activity against α-glucosidase than acarbose”.
For `CC(C)=CCC/C(C)=C/Cc1c(O)cc(O)c(C(=O)/C=C/c2ccc(O)cc2)c1O` [compound 1, 3′-geranylchalconaringenin], the “inhibition activity against α-glucosidase compared with acarbose” value ([9]; ref Sun et al. 12) is listed as “superior inhibition activity against α-glucosidase than acarbose”.
In the case of `CC(=O)c1cc(C)c(O)cc1O` [compound 3, 2,4-dihydroxy-5-methylacetophenone], the “α-glucosidase inhibitory activity (in words)” value [8] was “considerable inhibitory activity against α-glucosidase in prescreen”.
With `C[C@H]1O[C@H](O[C@H]2[C@H](O)[C@@H](O)[C@@H](O[C@H]3[C@H](O)[C@@H](O)C(O)O[C@@H]3CO)O[C@@H]2CO)[C@H](O)[C@@H](O)[C@@H]1N[C@H]1C=C(CO)[C@@H](O)[C@H](O)[C@H]1O` (stereo partly shown) [Acarbose, acarbose, reference compound] the “effect on postprandial blood glucose levels” value [3] was “at lower level than the model group”.
